Data from publication PMC9333455, “Drug repurposing based on a quantum-inspired method versus classical fingerprinting uncovers potential antivirals against SARS-CoV-2” (PLoS Computational Biology, 2022).

System: SARS-CoV-2 variants Alpha (B.1.1.7), Beta (B.1.351), Delta (B.617.2)
Assay type: cell-based
Settings: Vero E6 and Caco-2 cells, 48 h

COc1nc(N)nc2c1ncn2[C@@H]1O[C@H](COP(=O)(N[C@@H](C)C(=O)OCC(C)(C)C)Oc2cccc3ccccc23)[C@@H](O)[C@@]1(C)O (stereo partly shown) [BMS-986094]
replication of panel of SARS-CoV-2 variant isolates (in words): suppressed the replication
